Test results from patent publication US5734012A, “Cyclic motilin-like polypeptides with gastrointestinal motor stimulating activity” (Ohmeda Pharmaceutical Products Division Inc., priority 1996, dated 1998).
Read-outs that look alike come from different tables or passages of the source. Positions of bridges follow the written chain, without caps; N, C: chain ends. Non-standard residues stand in square brackets, D forms with d. Residues, ends and D or L forms follow the SMILES beside them. *: point of attachment. X1 = C[N+](C)(C)[C@@H](Cc1ccccc1)C(=O)*; NMeF = CN[C@@H](Cc1ccccc1)C(=O)O; dNMeF = CN[C@H](Cc1ccccc1)C(=O)O

Legend:
[1] = In vitro stability testing in 2% hog kidney homogenate; type: in vitro ADME; settings: for half-life at 0.5 mg/ml: pig, kidney or brush border membranes
Protocol: Like most small linear polypeptides, motilin is believed to be metabolized by the brush border cells of the kidney. Therefore, kidney homogenate was chosen as the model system for assessing the relative in vivo biostability of the peptides of this invention. All peptides to be studied were incubated in hog kidney (Pel Freeze, Inc., Rogers, Ark.) (2% w/v; final volume=4 mls; buffer=HEPES pH 7.0) at 25° C. […] In order to determine suitable incubation times and sampling intervals, two experiments were conducted with each polypeptide. The first run served as a rough estimate of peptide stability. All sampling was performed in duplicate. Sample volume was 180 μl. Sample clean-up was performed by addition of 20 μl of 100% TCA (final volume=200 μl; final TCA concentration=10%). The sample was vortexed from 5 to 10 seconds to ensure equilibration, then centrifuged to spin out the precipitated proteins. Analysis was carried out on a Waters HPLC system with autoinjector, a 5 μVydac C-18 analytical column, and a Waters 481 UV detector set at 214 nm. Injection volume was 80 μl. Initial solvent conditions were 20% acetonitrile / 80% (0.1%) TFA in Milli-Q water with a 35 minute gradient running to 63% acetonitrile / 37% (0.1%) TFA at 1 ml/min. Polypeptide substrate and metabolite peaks were ratioed to the internal standard and the duplicate sample ratios were averaged. The average ratio for the peptide substrate was expressed as a percentage and plotted versus time. First-order kinetics was assumed for data treatment. The rate of disappearance of the substrate was calculated using the Enzfitter program (Biosoft). Relative half-lives were determined from the relationship: […]

motilin receptor = target: T1, motilin receptor (Oryctolagus cuniculus, UniProt G1T803); experiment: Motilin receptor binding affinity (displacement of [125I-Tyr7,Nle13]motilin(porcine)); design: species or system rabbit
T1 construct: from tissue; host or cells: rabbit antral smooth muscle membranes
Protocol: The motilin receptor binding affinity of the peptides of this invention was determined by using the general procedure of Bormans, Peeters and Vantrappen, Regul. […] Fitting was performed using the iterative least-squares procedure of the SAS-software package (SAS Institute, Inc., Cary, N.C., USA).

[2] = target: rabbit duodenal smooth muscle strip (Oryctolagus cuniculus, UniProt G1T803); experiment: Rabbit duodenal smooth muscle strip tissue bath assay (contractility); type: cell-based; settings: negative logarithm of dose giving 50% of maximal response to motilin; isotonic contraction of rabbit duodenum segments
Protocol: The experimental protocol consisted of an equilibration period of 1 hour; a challenge with 10^-4 M acetylcholine followed by a wash-out period; a cumulative dose-response curve of a compound with, at the end, the addition of 10^-7 M motilin; and finally 10^-4 M acetylcholine. If the final response to 10^-4 M acetylcholine differed by more than 5% from the initial response, the results were discarded.

[3] = negative logarithm of concentration displacing 50% of [125I-Tyr7,Nle13]motilin(porcine) bound to rabbit antral smooth muscle membranes, read-out: pIC50 (converted)

T1 sequence (G1T803 1-400): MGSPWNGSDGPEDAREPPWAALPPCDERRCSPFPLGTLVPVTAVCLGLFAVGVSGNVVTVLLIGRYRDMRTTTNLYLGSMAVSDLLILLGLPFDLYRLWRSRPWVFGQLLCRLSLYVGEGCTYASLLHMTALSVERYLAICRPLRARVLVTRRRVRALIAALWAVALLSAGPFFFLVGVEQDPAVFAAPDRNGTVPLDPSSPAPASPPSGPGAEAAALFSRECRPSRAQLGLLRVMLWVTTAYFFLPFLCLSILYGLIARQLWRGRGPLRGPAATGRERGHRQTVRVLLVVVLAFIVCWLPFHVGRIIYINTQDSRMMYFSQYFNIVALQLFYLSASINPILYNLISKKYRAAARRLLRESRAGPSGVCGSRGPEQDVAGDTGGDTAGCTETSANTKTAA
Chain of rabbit duodenal smooth muscle strip (G1T803 1-400): as above

**Q.** For `CC[C@H](C)[C@H](NC(=O)[C@@H]1CCCN1C(=O)[C@@H](NC(=O)[C@@H](N)Cc1ccccc1)C(C)C)C(=O)N[C@@H](Cc1ccccc1)C(=O)N[C@H](C(=O)N[C@@H](Cc1ccc(O)cc1)C(=O)NCC(=O)N[C@@H](CCC(=O)O)C(=O)N[C@@H](CC(C)C)C(=O)N[C@@H](CCC(N)=O)C(=O)N[C@@H](CCCN=C(N)N)C(=O)N[C@@H](CC(C)C)C(=O)N[C@@H](CCC(N)=O)C(=O)N[C@@H](CCC(=O)O)C(=O)N[C@@H](CCCCN)C(=O)N[C@@H](CCC(=O)O)C(=O)N[C@@H](CCCN=C(N)N)C(=O)N[C@@H](CC(N)=O)C(=O)N[C@@H](CCCCN)C(=O)NCC(=O)N[C@@H](CCC(N)=O)C(=O)O)[C@@H](C)O` [SEQ ID NO:3, [Leu^13]pMOT(1-22), reference compound] (H-FVPIFTYGELQRLQEKERNKGQ-OH), which half-life at 0.5 mg/ml ([1]; 2% w/v hog kidney homogenate, HEPES pH 7.0, 25° C., 0.5 mg/ml substrate, first-order kinetics, read-out: T1/2) is on record?
**A.** 30.2 min

**Q.** Which IC50 (motilin receptor; [3]) does the source give for `CC[C@H](C)[C@H](NC(=O)[C@@H]1CCCN1C(=O)[C@@H](NC(=O)[C@@H](N)Cc1ccccc1)C(C)C)C(=O)N[C@@H](Cc1ccccc1)C(=O)N[C@H](C(=O)N[C@@H](Cc1ccc(O)cc1)C(=O)NCC(=O)N[C@@H](CCC(=O)O)C(=O)N[C@H]1CC(=O)NCCCC[C@@H](C(N)=O)NC(=O)[C@H](CC(C)C)NC(=O)[C@H](CCCNC(=N)N)NC(=O)[C@H](CCC(N)=O)NC1=O)[C@@H](C)O` [SEQ ID NO:6, cyclo^10,14 [Asp^10, Leu^13, Lys^14]pMOT(1-14)] (H-FVPIFTYGEDQRLK-NH2; lactam 10-14) here?
**A.** 1.51 nM

**Q.** And the pEC50 [2]?
**A.** 7.77

**Q.** For `CC[C@H](C)[C@H](NC(=O)[C@@H]1CCCN1C(=O)[C@@H](NC(=O)[C@H](Cc1ccccc1)NC)C(C)C)C(=O)N[C@@H](Cc1ccccc1)C(=O)N[C@H](C(=O)N[C@@H](Cc1ccc(O)cc1)C(=O)NCC(=O)N[C@@H](CCC(=O)O)C(=O)N[C@H]1CC(=O)NCCCC[C@@H](C(=O)N[C@@H](CCCCN)C(N)=O)NC(=O)[C@H](CC(C)C)NC(=O)[C@H](CCCNC(=N)N)NC(=O)[C@H](C)NC1=O)[C@@H](C)O` [SEQ ID NO:8, cyclo^10,14 [N-MePhe^1,Asp^10,Ala^11,Leu^13,Lys^14,Lys^15]pMOT(1-15) amide] (H-[NMeF]VPIFTYGEDARLKK-NH2; lactam 10-14), which IC50 (motilin receptor; [3]) is on record?
**A.** 1.1 nM

**Q.** What about the pEC50 [2] of the same compound?
**A.** 7.69

**Q.** With `CC[C@H](C)[C@H](NC(=O)[C@@H]1CCCN1C(=O)[C@@H](NC(=O)[C@H](Cc1ccccc1)NC)C(C)C)C(=O)N[C@@H](Cc1ccccc1)C(=O)N[C@H](C(=O)N[C@@H](Cc1ccc(O)cc1)C(=O)NCC(=O)N[C@@H](CCC(=O)O)C(=O)N[C@H]1CC(=O)NCCCC[C@@H](C(=O)N[C@H](CCCCN)C(N)=O)NC(=O)[C@H](CC(C)C)NC(=O)[C@H](CCCNC(=N)N)NC(=O)[C@H](C)NC1=O)[C@@H](C)O` [SEQ ID NO:9, cyclo^10,14 [N-MePhe^1,Asp^10,Ala^11,Leu^13,Lys^14,D-Lys^15]pMOT(1-15) amide] (H-[NMeF]VPIFTYGEDARLK[dK]-NH2; lactam 10-14) as the compound, how does the IC50 (motilin receptor) read?
**A.** 0.661 nM

**Q.** And the pEC50 [2]?
**A.** 7.89

**Q.** With `CC[C@H](C)[C@H](NC(=O)[C@@H]1CCCN1C(=O)[C@@H](NC(=O)[C@H](Cc1ccccc1)NC)C(C)C)C(=O)N[C@@H](Cc1ccccc1)C(=O)N[C@H](C(=O)N[C@@H](Cc1ccc(O)cc1)C(=O)NCC(=O)N[C@@H](CCC(=O)O)C(=O)N[C@H]1CCC(=O)NCCCC[C@@H](C(=O)N[C@@H](CCCCN)C(N)=O)NC(=O)[C@H](CC(C)C)NC(=O)[C@H](CCCNC(=N)N)NC(=O)[C@H](C)NC1=O)[C@@H](C)O` [SEQ ID NO:10, cyclo^10,14 [N-MePhe^1,Glu^10,Ala^11,Leu^13,Lys^14,Lys^15]pMOT(1-15) amide] (H-[NMeF]VPIFTYGEEARLKK-NH2; lactam 10-14) as the compound, how does the IC50 (motilin receptor; [3]) read?
**A.** 0.631 nM

**Q.** What about the pEC50 [2] of the same compound?
**A.** 7.96

**Q.** What about the half-life at 0.5 mg/ml ([1]; pH 7) of the same compound?
**A.** 21 min

**Q.** For `CC[C@H](C)[C@H](NC(=O)[C@@H]1CCCN1C(=O)[C@@H](NC(=O)[C@H](Cc1ccccc1)[N+](C)(C)C)C(C)C)C(=O)N[C@@H](Cc1ccccc1)C(=O)N[C@H](C(=O)N[C@@H](Cc1ccc(O)cc1)C(=O)NCC(=O)N[C@@H](CCC(=O)O)C(=O)N[C@H]1CC(=O)NCCCC[C@@H](C(=O)N[C@H](CCCCN)C(N)=O)NC(=O)[C@H](CC(C)C)NC(=O)[C@H](CCCNC(=N)N)NC(=O)[C@H](C)NC1=O)[C@@H](C)O` [SEQ ID NO:11, cyclo^10,14 [Me3 N^+ Phe^1,Asp^10,Ala^11,Leu^13,Lys^14,D-Lys^15]pMOT(1-15) amide] (X1-VPIFTYGEDARLK[dK]-NH2; lactam 9-13), which IC50 (motilin receptor; [3]) is on record?
**A.** 1.23 nM

**Q.** And the pEC50 [2]?
**A.** 7.89

**Q.** And the half-life at 0.5 mg/ml ([1]; pH 7)?
**A.** 437 min

**Q.** For `CC[C@H](C)[C@H](NC(=O)[C@@H]1CCCN1C(=O)[C@@H](NC(=O)[C@@H](Cc1ccccc1)NC)C(C)C)C(=O)N[C@@H](Cc1ccccc1)C(=O)N[C@H](C(=O)N[C@@H](Cc1ccc(O)cc1)C(=O)NCC(=O)N[C@@H](CCC(=O)O)C(=O)N[C@H]1CCC(=O)NCCCC[C@@H](C(N)=O)NC(=O)[C@H](CC(C)C)NC(=O)[C@H](CCCNC(=N)N)NC(=O)[C@H](CCC(N)=O)NC1=O)[C@@H](C)O` [SEQ ID NO:13, cyclo^10,14 [N-Me-D-Phe^1,Glu^10,Leu^13,Lys^14 pMOT(1-14) amide] (H-[dNMeF]VPIFTYGEEQRLK-NH2; lactam 10-14), which IC50 (motilin receptor; [3]) is on record?
**A.** 5.5 nM

**Q.** And the pEC50 [2]?
**A.** 6.87

**Q.** With `CC[C@H](C)[C@H](NC(=O)[C@@H]1CCCN1C(=O)[C@@H](NC(=O)[C@H](Cc1ccccc1)[N+](C)(C)C)C(C)C)C(=O)N[C@@H](Cc1ccccc1)C(=O)N[C@H](C(=O)N[C@@H](Cc1ccc(O)cc1)C(=O)NCC(=O)N[C@@H](CCC(=O)O)C(=O)N[C@H]1CCC(=O)NCCCC[C@@H](C(N)=O)NC(=O)[C@H](CC(C)C)NC(=O)[C@H](CCCNC(=N)N)NC(=O)[C@H](CCC(N)=O)NC1=O)[C@@H](C)O` [SEQ ID NO:14, cyclo^10,14 [Me3 N^+ Phe^1,Glu^10,Leu^13,Lys^14]pMOT(1-14) amide] (X1-VPIFTYGEEQRLK-NH2; lactam 9-13) as the compound, how does the pEC50 [2] read?
**A.** 7.38

**Q.** And the “T1/2” value ([1]; pH 7)?
**A.** > 200 min

**Q.** What does the source list for `CC[C@H](C)[C@H](NC(=O)[C@@H]1CCCN1C(=O)[C@@H](NC(=O)[C@H](Cc1ccccc1)NC)C(C)C)C(=O)N[C@@H](Cc1ccccc1)C(=O)N[C@H](C(=O)N[C@@H](Cc1ccc(O)cc1)C(=O)NCC(=O)N[C@@H](CCC(=O)O)C(=O)N[C@H]1CC(=O)NCCCC[C@@H](C(N)=O)NC(=O)[C@H](CC(C)C)NC(=O)[C@@H](CCCNC(=N)N)NC(=O)[C@H](C)NC1=O)[C@@H](C)O` [SEQ ID NO:23, cyclo^10,14 [N-MePhe^1,Asp^10,Ala^11,D-Arg^12,Leu^13,Lys^14]pMOT(1-14) amide] (H-[NMeF]VPIFTYGEDA[dR]LK-NH2; lactam 10-14)?
**A.** IC50 (motilin receptor; [3]): 11.5 nM; pEC50 [2]: 7.89

**Q.** Which IC50 (motilin receptor; [3]) does the source give for `CC[C@H](C)[C@H](NC(=O)[C@@H]1CCCN1C(=O)[C@@H](NC(=O)[C@H](Cc1ccccc1)[N+](C)(C)C)C(C)C)C(=O)N[C@@H](Cc1ccccc1)C(=O)N[C@H](C(=O)N[C@@H](Cc1ccc(O)cc1)C(=O)NCC(=O)N[C@@H](CCC(=O)O)C(=O)N[C@H]1CC(=O)NCCCC[C@@H](C(N)=O)NC(=O)[C@H](CC(C)C)NC(=O)[C@@H](CCCNC(=N)N)NC(=O)[C@H](C)NC1=O)[C@@H](C)O` [SEQ ID NO:24, cyclo^10,14 [Me3 N^+ Phe^1,Asp^10,Ala^11,D-Arg^12,Leu^13,Lys^14]pMOT(1-14) amide] (X1-VPIFTYGEDA[dR]LK-NH2; lactam 9-13) here?
**A.** 12.6 nM

**Q.** And the pEC50 [2]?
**A.** 7.02

**Q.** For `CC[C@H](C)[C@H](NC(=O)[C@@H]1CCCN1C(=O)[C@@H](NC(=O)[C@@H](N)Cc1ccccc1)C(C)C)C(=O)N[C@@H](Cc1ccccc1)C(=O)N[C@H](C(=O)N[C@@H](Cc1ccc(O)cc1)C(=O)NCC(=O)N[C@@H](CCC(=O)O)C(=O)N[C@@H](CC(C)C)C(=O)N[C@@H](CCC(N)=O)C(=O)N[C@@H](CCCNC(=N)N)C(=O)N[C@@H](CC(C)C)C(=O)N[C@@H](CCC(N)=O)C(=O)O)[C@@H](C)O` [SEQ ID NO:27, [Leu^13]pMOT(1-14), reference compound] (H-FVPIFTYGELQRLQ-OH; N-terminus and C-terminus assumed), which half-life at 0.5 mg/ml ([1]; pH 7) is on record?
**A.** 7.5 min
